According to US9969743B2, “Urea and amide derivatives of aminoalkylpiperazines and use thereof” (Southern Research Institute, priority 2012, dated 2018):

Columns and labels:
[1] = target: human D2 dopamine receptors (HEK cells) (Homo sapiens (Human), UniProt P14416); experiment: Whole cell adenylyl cyclase assay, D2; type: cell-based; conditions: inhibition of forskolin (100 μM) stimulated cAMP, normalized to quinpirole; conc >10× Ki, per compound in Conc (nM); mean ± S.E.M.
Procedure: Functional Activity. Whole cell adenylyl cyclase assay. The intrinsic activity of the compounds was evaluated by determining their ability to inhibit forskolin-dependent (100 μM) stimulation of adenylyl cyclase activity using a whole cell assay. A whole cell-cyclic AMP accumulation assay was performed with stably transfected HEK cells expressing human D2 or D3 dopamine receptors. This assay is an adaptation of an earlier published method (Su et al., Cyclic Nucleotide Res. 1976, 2, 257-285). Details regarding this method have been published (Chu, W. et al. Bioorg. Med. Chem. 2005, 13, 77-87; Taylor, M. et al. Synapse 2010, 64, 251-266). Confluent (60-80%) HEK cells transfected with recombinant D2-like dopamine receptors were grown in DMEM/10% fetal calf serum containing geneticin in […]. The endogenous ATP pool is radioactively labeled by preincubating the cells in serum-free DMEM/25 mM Hepes medium containing 2 μCi/mL of [2,8-^3H]-adenine (20-Ci/mmol) in a 5% CO2 incubator at 37° C. for 75 min. The radioactive medium was removed by aspiration. Serum-free DMEM (5.6 mL) containing 25 mM HEPES, pH 7.4, and 0.1 mM of the phosphodiesterase inhibitor isobutylmethylxanthine was added to the flask. A 400-μL aliquot of cells was removed and added to 50 μL of forskolin (100 μM) and 50 μL of test drug or quinpirole in DMEM-HEPES. The cells were incubated for 20 min at 37° C. (vortexing every 5 min). The reaction was terminated by the addition of 0.5 mL of 10% trichloroacetic acid (w/v) containing 1.0 mM unlabeled cyclic AMP as a recovery standard. Both the [^3H]-cyclic AMP and the [^3H]-ATP fractions were collected following separation using columns of Dowex AG-50W-X4 and alumina. The final yield of [^3H]-cyclic AMP is corrected for column recovery of unlabeled cyclic AMP determined spectrophotometrically (OD259). The results are reported as percent conversion of [^3H]-ATP into [^3H]-cyclic AMP. The values for the percent inhibition are reported as the actual percent of inhibition of the ^3H-cAMP accumulation relative to the assay performed in the absence of a test compound, minus basal activity. […] The percent maximum response is the value for the inhibition normalized to the value for the full agonist quinpirole.

[2] = target: human D3 dopamine receptor (Homo sapiens (Human), UniProt P35462); experiment: Radioligand binding (125I-IABN competition), D3 dopamine receptor; conditions: for Ki: 125I-IABN competition, membranes of stably transfected HEK cells, 37° C. 60 min, Cheng and Prusoff; for D2/D3 (D3 selectivity ratio, D2 Ki/D3 Ki): calculated from binding Ki values
Procedure: (§1) Binding Affinity. The affinities of the target compounds were determined using radioligand binding experiments.
(§2) Competition curves were modeled for a single site. Data from competition dose-response curves were analyzed using Tablecurve program (Jandel). IC50 values were converted to equilibrium dissociation constants (Ki values) using the Cheng and Prusoff correction.

[3] = target: human D2-long dopamine receptor (Homo sapiens (Human), UniProt P14416); experiment: Radioligand binding (125I-IABN competition), D2-long dopamine receptor; conditions: membranes of stably transfected HEK cells, 37° C. 60 min, Cheng and Prusoff
Procedure: as §1, §2

Chain of human D2 dopamine receptors (HEK cells) (P14416 whole entry): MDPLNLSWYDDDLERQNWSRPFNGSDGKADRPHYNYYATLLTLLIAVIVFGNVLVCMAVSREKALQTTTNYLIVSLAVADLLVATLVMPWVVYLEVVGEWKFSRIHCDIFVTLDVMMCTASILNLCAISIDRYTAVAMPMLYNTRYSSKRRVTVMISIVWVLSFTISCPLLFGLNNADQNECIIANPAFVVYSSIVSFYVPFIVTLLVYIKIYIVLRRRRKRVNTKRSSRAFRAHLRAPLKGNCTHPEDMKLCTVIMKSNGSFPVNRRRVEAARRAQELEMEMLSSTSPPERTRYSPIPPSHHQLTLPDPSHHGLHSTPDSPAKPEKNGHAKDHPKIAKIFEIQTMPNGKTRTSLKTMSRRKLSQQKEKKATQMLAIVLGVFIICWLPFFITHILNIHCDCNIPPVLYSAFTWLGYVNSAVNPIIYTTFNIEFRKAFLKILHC
Chain of human D2-long dopamine receptor (P14416 whole entry): as above
Chain of human D3 dopamine receptor (P35462 whole entry): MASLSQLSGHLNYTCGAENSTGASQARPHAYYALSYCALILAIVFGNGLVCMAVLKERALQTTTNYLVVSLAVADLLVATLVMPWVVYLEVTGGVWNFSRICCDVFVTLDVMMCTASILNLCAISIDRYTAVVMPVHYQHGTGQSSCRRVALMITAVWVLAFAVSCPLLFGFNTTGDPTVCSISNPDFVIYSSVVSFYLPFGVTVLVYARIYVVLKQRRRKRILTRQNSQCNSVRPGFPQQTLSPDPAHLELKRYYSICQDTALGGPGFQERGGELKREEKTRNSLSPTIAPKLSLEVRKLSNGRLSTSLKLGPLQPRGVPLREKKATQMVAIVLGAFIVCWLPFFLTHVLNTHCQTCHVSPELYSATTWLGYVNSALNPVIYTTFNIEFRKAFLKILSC

Row | Structure (SMILES) | D2 Cyclase % Inhibition Normalized [1] | Ki [2] [nM] | D2/D3 (D3 selectivity ratio, D2 Ki/D3 Ki) [2] | Ki [3] [nM]
1 | CC(C)(C)c1nc(N2CCN(CCCCNC(=O)N3CCN(c4ccccc4)CC3)CC2)c2ccccc2n1 [Compound 13, N-(4-(4-(2-(tert-Butyl)quinazolin-4-yl)piperazin-1-yl)butyl)-4-phenylpiperazine-1-carboxamide] | Insoluble |  |  | 
2 | CC(C)(C)c1nc(N2CCN(CCCCNC(=O)N3CCC(c4ccccc4)CC3)CC2)cc(C(F)(F)F)n1 [Compound 48, N-(4-(4-(2-(tert-Butyl)-6-(trifluoromethyl)pyrimidin-4-yl)piperazin-1-yl)butyl)-4-phenylpiperidine-1-carboxamide] | Insoluble |  |  | 
3 | CC(C)(C)c1cc(N2CCN(CCCCNC(=O)N3CCc4c([nH]c5ccccc45)C3)CC2)nc(C(C)(C)C)n1 [Compound 56, N-(4-(4-(2,6-Di-tert-butylpyrimidin-4-yl)piperazin-1yl)butyl)-1,3,4,9-tetrahydro-2H-pyrido[3,4-b]indole-2-carboxamide] |  | 9.5 ± 1.7 | 33 | 308 ± 29.9
4 | CC(C)(C)c1cc(N2CCN(CCCCNC(=O)N3CCc4c([nH]c5ccccc45)C3)CC2)cc(C(C)(C)C)c1 [Compound 97, N-(4-(4-(3,5-Di-tert-butylphenyl)piperazin-1-yl)butyl)-1,3,4,9-tetrahydro-2H-pyrido[3,4-b]indole-2-carboxamide] |  | 245 ± 46.4 | 10 | 2440 ± 175
5 | CC(C)(C)c1nc(C2CC2)cc(N2CCN(CCCCNC(=O)N3CCc4c([nH]c5ccccc45)C3)CC2)n1 [Compound 101, N-(4-(4-(2-(tert-Butyl)-6-cyclopropylpyrimidin-4-yl)piperazin-1-yl)butyl)-1,3,4,9-tetrahydro-2H-pyrido[3,4-b]indole-2-carboxamide] |  | 57.1 ± 3.5 |  | 789 ± 45.7
6 | CC(C)(C)c1nc(N2CCN(CCCCNC(=O)c3cn4ccncc4n3)CC2)cc(C(F)(F)F)n1 [Compound 115, N-(4-(4-(2-(tert-Butyl)-6-(trifluoromethyl)pyrimidin-4-yl)piperazin-1-yl)butyl)imidazo[1,2-a]pyrazine-2-carboxamide] | Insoluble |  |  | 
7 | CC(C)(C)c1nc(N2CCN(CCCCNC(=O)c3cn4nc(Cl)ccc4n3)CC2)cc(C(F)(F)F)n1 [Compound 116, N-(4-(4-(2-(tert-Butyl)-6-(trifluoromethyl)pyrimidin-4-yl)piperazin-1-yl)butyl)-6-chloroimidazo[1,2-b]pyridazine-2-carboxamide] | Insoluble |  |  | 
